What is called IC50 is the concentration that inhibits the measured activity by half. For orientation: melting point means the temperature, or range, at which the solid turns liquid.

The source of these data is patent US20160122340A1, “HISTONE DEACETYLASE INHIBITORS BASED ON DERIVATIVES OF TRICYCLIC POLYHYDROACRIDINE AND ANALOGS POSSESSING FUSED SATURATED FIVE-AND-SEVEN-MEMBERED RINGS” (QUIMATRYX, S.L., priority 2013, published 2016).

For one data set, the target named is T1, Human HDAC7 (Homo sapiens, UniProt Q8WUI4).
T1 construct: Amino acids 518-end with N-terminal GST tag, MW=78 kDa; GST (N); purchased BioMol, Hamburg, Germany; host or cells: baculovirus expression system
T1 sequence (Q8WUI4 518-952 limits assumed): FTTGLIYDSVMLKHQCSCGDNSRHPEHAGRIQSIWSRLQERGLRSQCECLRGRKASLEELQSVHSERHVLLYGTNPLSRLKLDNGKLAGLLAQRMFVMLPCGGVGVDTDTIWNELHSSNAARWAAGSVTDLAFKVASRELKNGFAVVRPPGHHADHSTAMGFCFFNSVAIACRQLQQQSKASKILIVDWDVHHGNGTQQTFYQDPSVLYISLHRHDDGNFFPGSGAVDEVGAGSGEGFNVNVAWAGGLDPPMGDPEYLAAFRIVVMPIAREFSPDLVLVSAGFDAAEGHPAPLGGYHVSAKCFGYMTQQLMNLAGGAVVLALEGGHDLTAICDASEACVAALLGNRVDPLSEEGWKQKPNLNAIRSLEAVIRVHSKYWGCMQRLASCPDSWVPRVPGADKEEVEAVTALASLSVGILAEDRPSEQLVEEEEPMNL
Kind of data set: In vitro HDAC7 inhibition, fluorogenic substrate. Format: biochemical. The settings on record: read-out: IC50 (μM) HDAC-7. As for the experimental part: (§1) In Vitro Inhibitory Activity of Histone Deacetylase: Human Isoforms HDAC1, 2, 3, 4, 5, 6, 7, 8, 9, 10 and 11 and HeLa Cell Line Nuclear Extract (IC50 Data)
(§2) All HDAC assays were performed using acetylated AMC-labeled peptide substrate: • Substrate for isoforms HDAC1, 2, 3, 6, 10, 11 and HeLa nuclear extract assays: Acetylated fluorogenic peptide from p53 residues 379-382 (RHKKAc). • Substrate for isoforms HDAC 4, 5, 7, 9: Fluorogenic Boc-L-Lys(ε-trifluoroacetyl)-AMC. • Substrate for HDAC8 assays: Acetylated fluorogenic peptide from p53 residues 379-382 (RHKAcKAc).
(§3) 50 μM of substrate peptide (see ‘substrate peptides’ section above) and an optimal concentration of the corresponding enzyme (see ‘enzymes’ section above) in the assay buffer and 1% final concentration of DMSO were incubated in the presence of gradient concentrations of inhibitors (10-dose IC50 mode with 3-fold serial dilution) at 30° C. for 2 h. The reactions were carried out in a 96-well microplate for fluorometry in a 50 μl reaction volume. After the deacetylation reaction, Fluor-de-Lys-Developer (BioMol Cat. # KI-105) was added to each well to digest the deacetylated substrate, thus producing the fluorescent signal. The reaction was allowed to develop for 45 minutes at 30° C. with 5% CO2; then the fluorescent signal was measured with an excitation wavelength at 360 nm and an emission wavelength at 460 nm in a microplate-reading fluorometer (GeminiXS; Molecular Devices, Sunnyvale, Calif.). A curve of Deacetylated Standard (Biomol, Cat. # KI-142; made from 100 μM with 1:2 dilution and 10-doses, 6 μl) allowed the conversion of fluorescent signal into micromoles of deacetylated product. All experiments were performed in triplicate. IC50 was calculated by fitting the experimental data to a dose-response curve. DMSO was used as negative control; Trichostatin A (Biomol Cat. # GR-309) was used as positive control inhibitor.

The target in a further data set is T2, Human HDAC1 (Homo sapiens, UniProt Q13547).
T2 construct: Full length with C-terminal GST tag, MW=79.9 kDa; GST (C); purchased BioMol SE-456; host or cells: baculovirus / Sf9 cells
T2 sequence (Q13547 whole entry): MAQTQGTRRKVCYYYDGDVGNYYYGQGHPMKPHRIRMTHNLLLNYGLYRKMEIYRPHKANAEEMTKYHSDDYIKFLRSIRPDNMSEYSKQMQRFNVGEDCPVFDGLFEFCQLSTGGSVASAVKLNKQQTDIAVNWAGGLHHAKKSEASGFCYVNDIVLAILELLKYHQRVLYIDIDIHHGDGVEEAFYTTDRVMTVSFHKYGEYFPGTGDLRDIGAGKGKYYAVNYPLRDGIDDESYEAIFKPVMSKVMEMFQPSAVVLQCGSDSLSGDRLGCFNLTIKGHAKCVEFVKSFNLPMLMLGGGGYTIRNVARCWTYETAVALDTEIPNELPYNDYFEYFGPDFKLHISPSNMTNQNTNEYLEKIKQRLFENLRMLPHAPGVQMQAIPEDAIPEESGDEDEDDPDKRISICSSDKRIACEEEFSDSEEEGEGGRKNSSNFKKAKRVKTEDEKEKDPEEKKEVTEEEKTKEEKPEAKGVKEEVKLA
The data set can be described thus: In vitro HDAC1 inhibition, fluorogenic peptide substrate. Format: biochemical. Conditions: read-out: IC50 (μM) HDAC-1. The procedure: as §1, §2, §3

A further data set has as its target T3, Human HDAC11 (Homo sapiens, UniProt Q96DB2).
T3 construct: GST (N); purchased BioMol SE-560; host or cells: baculovirus expression system
T3 sequence (Q96DB2 1-347): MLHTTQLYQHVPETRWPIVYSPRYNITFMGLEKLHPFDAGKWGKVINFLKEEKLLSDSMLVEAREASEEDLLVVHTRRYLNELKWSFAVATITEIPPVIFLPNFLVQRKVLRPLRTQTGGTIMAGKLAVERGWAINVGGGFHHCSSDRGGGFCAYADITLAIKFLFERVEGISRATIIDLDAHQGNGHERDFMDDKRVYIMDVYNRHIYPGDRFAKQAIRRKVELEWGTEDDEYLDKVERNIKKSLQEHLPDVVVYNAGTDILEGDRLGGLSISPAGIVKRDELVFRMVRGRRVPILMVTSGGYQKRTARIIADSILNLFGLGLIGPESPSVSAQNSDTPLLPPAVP
The data set can be described thus: In vitro HDAC11 inhibition, fluorogenic peptide substrate. Format: biochemical. The settings on record: read-out: IC50 (μM) HDAC-11. As for the experimental part:
as §1, §2, §3

As for `O=C(CCCCCCNc1c2c(nc3ccccc13)CCCC2)NO` [Example 2, N-hydroxy-7-[(1,2,3,4-tetrahydroacridin-9-yl)amino]heptanamide], the melting point fell in the range of 156 to 157 °C. At Human HDAC7, the IC50 is 0.77 µM. Further, the IC50 on Human HDAC1 was 0.36 µM. Besides, the half-inhibitory concentration (IC50) on Human HDAC11 is 0.59 µM.

Compound `O=C(CCCCCCNc1c2c(nc3cnccc13)CCCC2)NO` [Example 8, N-hydroxy-7-[(6,7,8,9-tetrahydrobenzo[b][1,7]naphthyridin-5-yl)amino]heptanamide] returned a melting point of 56.7 °C. The half-maximal inhibitory concentration (IC50) at Human HDAC7 is above 5 µM. In addition, the 50% inhibitory concentration (IC50) on Human HDAC1 was found to be 1.12 µM. In addition, the IC50 on Human HDAC11 was 0.6 µM.

For the compound `O=C(CCCCCCNc1c2c(nc3ncccc13)CCCC2)NO` [Example 7, N-hydroxy-7-[(6,7,8,9-tetrahydrobenzo[b][1,8]naphthyridin-5-yl)amino]heptanamide], the melting point was in the range of 234 to 235 °C. The half-maximal inhibitory concentration (IC50) at Human HDAC7 is above 5 µM. In addition, the 50% inhibitory concentration (IC50) at Human HDAC1 was found to be 1.77 µM. Moreover, the IC50 on Human HDAC11 was determined as 0.69 µM.

For `O=C(CCCCCCNC(=O)c1c2c(nc3ccccc13)CCCC2)NO` [Example 11, N-[7-(hydroxyamino)-7-oxoheptyl]-1,2,3,4-tetrahydroacridine-9-carboxamide], the melting point was in the range of 185 to 186 °C. Besides, the IC50 on Human HDAC7 is above 5 µM. Also, the IC50 on Human HDAC1 amounted to 2.95 µM. For the same compound, at Human HDAC11, the IC50 turned out to be 4.1 µM.

The compound `O=C(CCCCCNc1c2c(nc3ccccc13)CCCC2)NO` [Example 1, N-hydroxy-6-[(1,2,3,4-tetrahydroacridin-9-yl)amino]hexanamide] yielded a melting point of 162 to 164 °C. Also, on Human HDAC7, the concentration for half-maximal inhibition (IC50) is 4.55 µM. For the same compound, the IC50 on Human HDAC1 worked out at 2.99 µM. Further, the IC50 on Human HDAC11 was found to be 2.21 µM.

Consider `O=C(CCCCCCNc1c2c(nc3ccccc13)CCCCC2)NO` [Example 4, N-hydroxy-7-[(7,8,9,10-tetrahydro-6H-cyclohepta[b]quinolin-11-yl)amino]heptanamide], for which the melting point is 155 to 156 °C. The IC50 on Human HDAC7 is above 5 µM. Also, the half-maximal inhibitory concentration (IC50) on Human HDAC1 came to 0.84 µM. For the same compound, the IC50 on Human HDAC11 was 1.22 µM.

With `COc1cccc2c(NCCCCCCC(=O)NO)c3c(nc12)CCCC3` [Example 5, N-hydroxy-7-[(5-methoxy-1,2,3,4-tetrahydroacridin-9-yl)amino]heptanamide], the melting point worked out at 361 °C. The IC50 on Human HDAC7 was above 5 µM. In addition, the IC50 at Human HDAC1 turned out to be 0.9 µM. Moreover, the IC50 at Human HDAC11 worked out at 1.04 µM.

For the compound `O=C(CCCCCNC(=O)c1c2c(nc3ccccc13)CCCC2)NO` [Example 10, N-[6-(hydroxyamino)-6-oxohexyl]-1,2,3,4-tetrahydroacridine-9-carboxamide], the melting point is 187 to 188 °C. Besides, the IC50 at Human HDAC7 was above 5 µM. Besides, the IC50 on Human HDAC1 was above 5 µM. Further, the IC50 on Human HDAC11 is above 5 µM.

On to `O=C(CCCCCCNc1c2c(nc3ccccc13)CCC2)NO` [Example 3, 7-[(2,3-dihydro-1H-cyclopenta[b]quinolin-9-yl)amino]-N-hydroxyheptanamide], for which the melting point is 165 to 166 °C. For the same compound, the IC50 on Human HDAC7 was above 5 µM. Besides, the half-inhibitory concentration (IC50) on Human HDAC1 worked out at 0.27 µM. Also, the IC50 at Human HDAC11 came out at 0.44 µM.
